The text below walks through data of patent US20170037028A1 (BAYER PHARMA AKTIENGESELLSCHAFT, priority 2013, published 2017).

For the experiment, the target named is T1, GLUT1 (Homo sapiens, UniProt P11166).
T1 sequence (P11166 1-492): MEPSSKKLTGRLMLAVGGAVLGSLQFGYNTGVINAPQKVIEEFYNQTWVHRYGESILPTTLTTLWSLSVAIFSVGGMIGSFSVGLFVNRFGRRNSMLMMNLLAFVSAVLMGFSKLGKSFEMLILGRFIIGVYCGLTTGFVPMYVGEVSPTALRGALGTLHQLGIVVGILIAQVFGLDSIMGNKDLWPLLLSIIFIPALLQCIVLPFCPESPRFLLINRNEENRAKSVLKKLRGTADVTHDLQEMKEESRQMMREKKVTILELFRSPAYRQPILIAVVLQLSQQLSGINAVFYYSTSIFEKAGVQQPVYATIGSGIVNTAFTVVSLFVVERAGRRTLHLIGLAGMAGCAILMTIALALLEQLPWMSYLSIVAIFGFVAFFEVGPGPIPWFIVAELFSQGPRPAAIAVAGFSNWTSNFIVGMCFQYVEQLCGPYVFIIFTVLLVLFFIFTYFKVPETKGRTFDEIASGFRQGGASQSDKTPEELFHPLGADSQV
The experiment can be described thus: Indirect measurement of GLUT1 activity by quantification of intracellular ATP levels (glucose induced ATP increase). The arrangement: endogenous in cells; host or cells: DLD1 or CHO-K1. Format: cell-based. The note with it: read-out: IC50 regarding glucose induced ATP increase (GLUT1 inhibition). The essentials:
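DLD1 or CHO-K1 cells were starved overnight in glucose-free medium with 1% FCS, then combined with an oxidative phosphorylation inhibitor. GLUT1 activity was read as glucose-induced ATP increase, GLUT2 as fructose-induced. Intracellular ATP was quantified by CellTiter-Glo luminescence.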
Broadly, the IC50 is the concentration needed to halve the response being measured. For the compound `Cc1nn(Cc2c(F)cccc2F)c(C)c1NC(=O)c1cc(C(F)(F)F)nc2ccc(Br)cc12` [Example 13, 6-bromo-N-[1-(2,6-difluorobenzyl)-3,5-dimethyl-1H-pyrazol-4-yl]-2-(trifluoromethyl)quinoline-4-carboxamide], the IC50 was 0.0113 µM.
For the compound `Cc1nn(Cc2ccc(C(=O)NC(CO)(CO)CO)cc2)c(C)c1NC(=O)c1cc(C(F)(F)F)nc2ccc(Br)cc12` [Example 1136], the IC50 was 0.0982 µM.
To `Cc1nn(Cc2cccc(C(F)(F)F)c2)c(C)c1NC(=O)c1cc(C(F)(F)F)nc2c(Cl)cc(Cl)cc12` [Example 1306] belongs 11.1 µM; to `Cc1nn(Cc2ccc(F)cc2)c(C)c1NC(=O)c1cc(C(F)(F)F)nc2cc(Br)ccc12` [Example 88, 7-bromo-N-[1-(4-fluorobenzyl)-3,5-dimethyl-1H-pyrazol-4-yl]-2-(trifluoromethyl)quinoline-4-carboxamide], 0.281 µM; to `Cc1c(NC(=O)c2cc(C(F)(F)F)nc3c(Cl)cc(Cl)cc23)c(C(F)(F)F)nn1Cc1ccc(F)cc1F` [Example 205, 6,8-dichloro-N-[1-(2,4-difluorobenzyl)-5-methyl-3-(trifluoromethyl)-1H-pyrazol-4-yl]-2-(trifluoromethyl)quinoline-4-carboxamide], 0.613 µM.
Next, `Cc1nn(Cc2ccc(C(=O)N3CCCC(O)C3)cc2)c(C)c1NC(=O)c1cc(C(F)(F)F)nc2ccc(Br)cc12` (racemic) [Example 1162]: 0.164 µM; `Cc1cc(C)n(CCn2nc(C)c(NC(=O)c3cc(C(F)(F)F)nc4ccc(Br)cc34)c2C)n1` [Example 1233]: 1.11 µM.
Next, `Cc1c(NC(=O)c2cc(C(F)(F)F)nc3ccc(Br)cc23)c(C(N)=O)nn1Cc1ccc(F)cc1` [Example 1135]: 0.0981 µM; `COc1cc(C(=O)Nc2c(C)nn(Cc3ccc(OC)c(F)c3)c2C)c2ccccc2n1` [Example 239, N-[1-(3-fluoro-4-methoxybenzyl)-3,5-dimethyl-1H-pyrazol-4-yl]-2-methoxyquinoline-4-carboxamide]: 0.0029 µM; `Cc1ccc2nc(C)cc(C(=O)Nc3c(C)nn(Cc4ccccc4F)c3C)c2c1` [Example 112, N-[1-(2-fluorobenzyl)-3,5-dimethyl-1H-pyrazol-4-yl]-2,6-dimethylquinoline-4-carboxamide]: 0.771 µM.
On to `Cc1nn(Cc2cc(C3CC3)on2)c(C)c1NC(=O)c1cc(C(N)=O)nc2cc(F)c(Cl)cc12` [Example 417, 6-chloro-N^4-{1-[(5-cyclopropyl-1,2-oxazol-3-yl)methyl]-3,5-dimethyl-1H-pyrazol-4-yl}-7-fluoroquinoline-2,4-dicarboxamide], for which the IC50 was found to be 0.0007 µM.
To `Cc1nn(Cc2ccc(C(=O)O)cn2)c(C)c1NC(=O)c1cc(C(N)=O)nc2ccc(F)cc12` [Example 1275] belongs 3.5 µM; to `Cc1ccc2nc(C)cc(C(=O)Nc3c(C)nn(Cc4c(F)cccc4F)c3C)c2c1` [Example 84, N-[1-(2,6-difluorobenzyl)-3,5-dimethyl-1H-pyrazol-4-yl]-2,6-dimethylquinoline-4-carboxamide], 0.255 µM; to `Cc1nn(Cc2cccc(S(C)(=O)=O)c2)c(C)c1NC(=O)c1cc(C(N)=O)nc2cc(F)ccc12` [Example 1640], 0.277 µM.
`Cc1nn(Cc2ccc(C(=O)N3CCOCC3)cn2)c(C)c1NC(=O)c1cc(C(F)(F)F)nc2ccc(Br)cc12` [Example 1234]: the IC50 was found to be 1.18 µM.
To `Cc1nn(Cc2ccc(C(=O)NCCF)cc2)c(C)c1NC(=O)c1cc(C(F)(F)F)nc2ccc(Br)cc12` [Example 1030] belongs 0.0032 µM.
Next, `COc1ccc(Cn2nc(C(F)(F)F)c(NC(=O)c3cc(C(F)(F)F)nc4ccc(Br)cc34)c2C)cn1` [Example 1027]: 0.003 µM; `Cc1nn(Cc2ccc(F)cc2)c(C)c1NC(=O)c1cc(C(F)(F)F)nc2ccc(OC(F)(F)F)cc12` [Example 63, N-[1-(4-fluorobenzyl)-3,5-dimethyl-1H-pyrazol-4-yl]-6-(trifluoromethoxy)-2-(trifluoromethyl)quinoline-4-carboxamide]: 0.129 µM.
To `Cc1c(NC(=O)c2cc(C(N)=O)nc3ccc(Br)cc23)c(C(F)(F)F)nn1Cc1ccc(F)c(F)c1` [Example 1445] belongs 0.0057 µM; to `Cc1c(NC(=O)c2cc(C(F)(F)F)nc3ccc(Br)cc23)c(C(F)(F)F)nn1Cc1ccc(C(=O)NCCO)cn1` [Example 1065], 0.0187 µM.
For the compound `COCCNC(=O)c1ccc(Cn2nc(C)c(NC(=O)c3cc(C(F)(F)F)nc4ccc(Br)cc34)c2C)cc1` [Example 137, 6-bromo-N-(1-{4-[(2-methoxyethyl)carbamoyl]benzyl}-3,5-dimethyl-1H-pyrazol-4-yl)-2-(trifluoromethyl)quinoline-4-carboxamide], the IC50 was 0.0107 µM.
Next, `Cc1nn(Cc2ccc(F)cc2)c(C)c1NC(=O)c1cc(C(F)(F)F)nc2c(F)cccc12` [Example 85, 8-fluoro-N-[1-(4-fluorobenzyl)-3,5-dimethyl-1H-pyrazol-4-yl]-2-(trifluoromethyl)quinoline-4-carboxamide]: 0.257 µM; `Cc1nn(CCc2cccc(F)c2)c(C)c1NC(=O)c1cc(C(N)=O)nc2ccccc12` [Example 1148]: 0.122 µM; `COc1cc(C(=O)Nc2c(C)nn(CC3CNC(=O)O3)c2C)c2ccccc2n1` (centres unmarked) [Example 1525]: 4.81 µM.
To `Cc1nn(Cc2ccc(C(=O)NCC(O)CO)cn2)c(C)c1NC(=O)c1cc(C(F)(F)F)nc2ccc(Br)cc12` (centres unmarked) [Example 1263] belongs 2.32 µM; to `Cc1cccc(Cn2nc(C)c(NC(=O)c3cc(C(N)=O)nc4ccc(Br)cc34)c2C)c1` [Example 1477], 0.0043 µM; to `Cc1ccc(Cn2nc(C)c(NC(=O)c3cc(C)nc4ccc(C)cc34)c2C)cc1` [Example 45, N-[3,5-dimethyl-1-(4-methylbenzyl)-1H-pyrazol-4-yl]-2,6-dimethylquinoline-4-carboxamide], 0.0354 µM.
To `Cc1c(NC(=O)c2cc(C(F)(F)F)nc3ccc(Br)cc23)c(C(F)(F)F)nn1Cc1ccc(C#N)nc1` [Example 1056] belongs 0.015 µM; to `Cc1c(NC(=O)c2cc(C(N)=O)nc3cccc(F)c23)c(C(F)(F)F)nn1Cc1ccc(S(C)(=O)=O)cc1` [Example 1437], 0.0139 µM; to `COc1ccc(Cn2nc(C)c(NC(=O)c3cc(C(N)=O)nc4cc(F)c(Cl)cc34)c2C)cn1` [Example 283, 6-chloro-7-fluoro-N^4-{1-[(6-methoxypyridin-3-yl)methyl]-3,5-dimethyl-1H-pyrazol-4-yl}quinoline-2,4-dicarboxamide], 0.0012 µM.
`Cc1cc(Br)c2nc(C(F)(F)F)cc(C(=O)Nc3c(C)nn(Cc4ccc(F)cc4)c3C)c2c1` [Example 21, 8-bromo-N-[1-(4-fluorobenzyl)-3,5-dimethyl-1H-pyrazol-4-yl]-6-methyl-2-(trifluoromethyl)quinoline-4-carboxamide]: the IC50 was 0.0148 µM.
With `Cc1nn(Cc2ccc(C(=O)N[C@@H](C)CO)cc2)c(C)c1NC(=O)c1cc(C(F)(F)F)nc2ccc(Br)cc12` [Example 1101], the IC50 was 0.0428 µM.
To `Cc1c(NC(=O)c2cc(C(N)=O)nc3ccc(NCCN(C)C)cc23)c(C(F)(F)F)nn1Cc1ccc(C#N)cc1` [Example 1434] belongs 0.0513 µM; to `Cc1nn(Cc2ccc(F)cc2F)c(C)c1NC(=O)c1cc(C(N)=O)nc2cc(F)ccc12` [Example 1487], 0.0012 µM.
Next, `Cc1ccc2nc(C(N)=O)cc(C(=O)Nc3c(C)nn(Cc4ccc(F)cc4)c3C)c2c1` [Example 1377]: 0.0017 µM.
Next, `Cc1cc(Cn2nc(C(F)(F)F)c(NC(=O)c3cc(C(N)=O)nc4cc(F)ccc34)c2C)on1` [Example 1542]: 0.0849 µM; `Cc1c(NC(=O)c2cc(C(N)=O)nc3ccccc23)c(C(F)(F)F)nn1Cc1cccc(S(C)(=O)=O)c1` [Example 1636]: 0.292 µM.
Turning to `COc1cc(C(=O)Nc2c(C)nn(Cc3ccccc3C(F)(F)F)c2C)c2ccccc2n1` [Example 1305], the IC50 turned out to be 11.1 µM.
To `Cc1nn(Cc2ccncc2C#N)c(C)c1NC(=O)c1cc(C(N)=O)nc2ccccc12` [Example 286, N^4-{1-[(3-cyanopyridin-4-yl)methyl]-3,5-dimethyl-1H-pyrazol-4-yl}quinoline-2,4-dicarboxamide] belongs 0.0356 µM; to `Cc1c(NC(=O)c2cc(C(F)(F)F)nc3cc(F)c(F)cc23)c(C(F)(F)F)nn1Cc1ccc(F)c(F)c1` [Example 207, N-[1-(3,4-difluorobenzyl)-5-methyl-3-(trifluoromethyl)-1H-pyrazol-4-yl]-6,7-difluoro-2-(trifluoromethyl)quinoline-4-carboxamide], 0.688 µM; to `Cc1nn(Cc2ccc(F)cc2)c(C)c1NC(=O)c1cc(N2CCOCC2)nc2ccccc12` [Example 198, N-[1-(4-fluorobenzyl)-3,5-dimethyl-1H-pyrazol-4-yl]-2-(morpholin-4-yl)quinoline-4-carboxamide], 0.438 µM.
